Experimental data: US11766468B2, “Method of treating prostate cancer with GnRH antagonist” (priority 2012, dated 2023)
Marks after values point to notes of the source that are not given here.

Assay: CS21 safety: treatment-emergent adverse events (MedDRA SOC/PT), crude incidence, also by subgroup
Assay type: in vivo
Conditions: for Musculoskeletal and connective tissue disorders, % of patients: pooled degarelix
Method: The safety variables for this study were assessed on the following: the frequency and severity of adverse events (AEs); the presence of clinically significant changes in laboratory parameters (clinical chemistry, hematology and urinalysis); changes in electrocardiograms (ECGs) and vital signs; changes detected by physical examination; and body weight.
An AE was therefore any unfavorable or unintended sign (including an abnormal laboratory finding), symptom or disease temporally associated with the use of the product, whether or not related to the IMP.
An adverse drug reaction (ADR) was defined as an AE evaluated by the investigator as being probably or possibly related to treatment with the IMP.
AEs were graded according to the National Cancer Institute (NCI) Common Terminology Criteria for Adverse Events (CTCAE). In accordance with the CTCAE criteria, AEs were rated on a five-point scale corresponding to mild, moderate, severe, life-threatening or disabling and death. For those AEs not described in the CTCAE, a separate five-point rating scale was used for rating of the intensity of AEs as follows below:
Safety parameters were evaluated for all patients included in the ITT analysis set, comprising all 610 randomized patients who received at least one dose of study medication. All safety tables include four columns: the three treatment groups described separately, and the pooled degarelix group.
Adverse events were regarded as ‘treatment-emergent’ if they occurred in the time interval from initial dosing to end-of-study. Adverse events were considered ‘pre-treatment’ if they occurred between screening and the initial injections of IMP. As described above, all AEs were classified according to MedDRA (version 10.0) system organ class (SOC), sorted alphabetically, and by preferred term (PT), in decreasing frequency of occurrence. Treatment-emergent AEs were expressed in terms of intensity (using NCI CTCAE) and relationship to study drug.
Using the results from the summary of clinical efficacy (SCE) and summary of clinical safety (SCS) findings, different patient subgroups were analyzed. Subgroup distinguishers included race (white, black, and other), age (<65 years, […], and >75 years), weight (<70 kg, ≥70−<90 kg, and ≥90 kg), body mass index (BMI) (≤20, >20 to 30, and >30 kg/m^2)), region (North-America, Western Europe, Central and Eastern Europe and Other), and stage of prostate cancer (e.g., localized, locally advanced, and metastatic).

[1] = degarelix Total (pooled), leuprolide 7.5 mg
[2] = degarelix Total (pooled), leuprolide 7.5 mg, listed as leuprolide

## CCNC(=O)[C@@H]1CCCN1C(=O)[C@H](CCCNC(=N)N)NC(=O)[C@H](CC(C)C)NC(=O)[C@@H](CC(C)C)NC(=O)[C@H](Cc1ccc(O)cc1)NC(=O)[C@H](CO)NC(=O)[C@H](Cc1c[nH]c2ccccc12)NC(=O)[C@H](Cc1c[nH]cn1)NC(=O)[C@@H]1CCC(=O)N1 [Leuprolide, leuprolide, reference compound]
Age <65
  Musculoskeletal and connective tissue disorders, % of patients: (34%)**
PCA = Localised
  Musculoskeletal and connective tissue disorders, % of patients: (25%)
PCA = Locally advanced
  Musculoskeletal and connective tissue disorders, % of patients: (19%)
PCA = Metastatic
  Musculoskeletal and connective tissue disorders, % of patients: (36%)
Race = White
  Musculoskeletal and connective tissue disorders, % of patients: (26%)**
Weight <70 kg
  Musculoskeletal and connective tissue disorders, % of patients: (36%)*
Weight >=90 kg
  Musculoskeletal and connective tissue disorders, % of patients: (32%)*
[1]
  Deaths (Grade 5), % of patients: 4%
  Deaths (Grade 5), E events: 10
  Deaths (Grade 5), N patients: 9
  Infections & infestations, % of patients: (24%)
  Musculoskeletal & connective tissue disorders, % of patients: (26%)
  Skin & subcutaneous tissue disorders, % of patients: ( 5%)
  Urinary tract infection, % of patients: ( 9%)
[2]
  Infections & infestations, % of patients: 24%
  Musculoskeletal & connective tissue disorders, % of patients: 26%
  Urinary tract infection, % of patients: 9%
In vivo
  Atrioventricular block first degree, % of patients: (6%)*
  Bronchitis, % of patients: ( 8%)*
  Chest pain, % of patients: ( 3%)*
  Cystitis noninfective, % of patients: (2%)*
  Deep vein thrombosis, % of patients: (2%)*
  Depression, % of patients: (6%)*
  Diarrhoea, % of patients: (8%)*
  Dyspnoea, % of patients: (6%)*
  Excoriation, % of patients: ( 4%)
  Fall, % of patients: ( 2%)
  Gynaecomastia, % of patients: (3%)
  Injury, poisoning and procedural complications, % of patients: (12%)**
  Investigations, % of patients: (30%)
  Libido decreased, % of patients: (3%)
  Musculoskeletal stiffness, % of patients: (2%)*
  Myocardial ischaemia, % of patients: ( 3%)*
  Nervous system disorders, % of patients: (10%)
  Orthostatic hypotension, % of patients: (2%)*
  Pain in extremity, % of patients: ( 9%)
  Pelvic pain, % of patients: (8%)*
  Psychiatric disorders, % of patients: (14%)
  Respiratory, thoracic and mediastinal disorders, % of patients: (10%)
  Syncope, % of patients: (2%)*
  Vascular disorders, % of patients: (30%)
